Source: patent US10801077B2, “Influenza A virus variants” (Vertex Pharmaceuticals Incorporated, priority 2014, dated 2020)

How the values were obtained:
[1] = system: A/Puerto Rico/8/34 (A/H1N1) influenza virus isolates; format: cell-based
[2] = system: A/California/07/2009 (A/H1N1) influenza virus isolates; format: cell-based

CC(C)(C)[C@@H](CC(=O)O)Nc1nc(-c2c[nH]c3ncc(F)cc23)ncc1F [Compound 1]
EC50 shift [1]: 286 fold
EC50 shift [2]: 500 fold
